From patent US5576323A, “Excitatory amino acid receptor antagonists” (Eli Lilly and Company, priority 1994, dated 1996)

test system: metabotropic glutamate receptors; experiment: displacement of 1S,3R-ACPD-sensitive [3H]glutamate binding to rat forebrain crude membranes; settings: 100 μM, mixture of enantiomers unless otherwise noted
Protocol: The binding of [^3 H]glutamate was conducted with crude membranes of rat forebrain as described by Schoepp and True. Schoepp and True, Neuroscience Lett., 145, 100-104 (1992), True and Schoepp, Society for Neuroscience Abstracts, 19, 470 (1993) and Wright, McDonald and Schoepp, J. Neurochem. 63: 938-945, 1994.

Row | SMILES | Percent displacement of L-[3H]Glu [%]
1 | NC(CC(Sc1ccccc1)C(=O)O)C(=O)O (centres unmarked) [Compound 2, 4-Benzenethioglutamic Acid] | 77.1
2 | Cc1ccccc1OC(C[C@H](N)C(=O)O)C(=O)O (some centres unmarked) [Compound 4, 4-(2-Methylphenoxy)glutamic acid] | 66.5
3 | COc1ccc(OC(C[C@H](N)C(=O)O)C(=O)O)cc1 (some centres unmarked) [Compound 5, 4-(4 Methoxyphenoxy)glutamic Acid] | 82.3
4 | CC(C)c1ccc(OC(C[C@H](N)C(=O)O)C(=O)O)cc1 (some centres unmarked) [Compound 6, 4-(4-(Isopropyl)phenoxy)glutamic Acid] | 53.9
5 | N[C@@H](CC(Oc1ccc(C2CCCC2)cc1)C(=O)O)C(=O)O (some centres unmarked) [Compound 7, 4-(4-Cyclopentylphenoxy)glutamic Acid] | 72.0
6 | CC(C)(C)CC(C)(C)c1ccc(OC(C[C@H](N)C(=O)O)C(=O)O)cc1 (some centres unmarked) [Compound 8, 4-(4-(1,1,3,3-Tetramethylbutyl)phenoxy)glutamic Acid] | 52.3
7 | CC(=O)c1ccc(OC(CC(N)C(=O)O)C(=O)O)cc1 (centres unmarked) [Compound 9] | 85.8
8 | N[C@@H](CC(Oc1ccc(C(F)(F)F)cc1)C(=O)O)C(=O)O (some centres unmarked) [Compound 10, 4-(4-Trifluoromethylphenoxy)glutamic Acid] | 77.9
9 | N[C@@H](CC(Oc1ccc(C=Cc2ccc([N+](=O)[O-])cc2)cc1)C(=O)O)C(=O)O (some centres unmarked) [Compound 18, 4-(4-(2-(4-Nitrophenyl)ethenyl)phenoxy)glutamic Acid] | 92.1
10 | N[C@@H](CC(Oc1ccc2cc(Br)ccc2c1)C(=O)O)C(=O)O (some centres unmarked) [Compound 22, 4-(6-Bromo-2-naphthyloxy)glutamic Acid] | 93.9
11 | N[C@@H](CC(Oc1ccc2cc(Br)ccc2c1Br)C(=O)O)C(=O)O (some centres unmarked) [Compound 23, 4-(1,6-Dibromo-2-naphthyloxy)glutamic Acid] | 99.5
12 | NC(CC(Sc1ccc2ccccc2c1)C(=O)O)C(=O)O (centres unmarked) [Compound 24, 4-(2-Naphthalenethio)glutamic Acid] | 100.6
13 | N[C@@H](CC(Oc1cccc2c1CCCC2)C(=O)O)C(=O)O (some centres unmarked) [Compound 26, 4-(5,6,7,8-Tetrahydro-1-naphthyloxy)glutamic Acid] | 82.1
14 | CC1(C)CCC(C)(C)c2cc(OC(C[C@H](N)C(=O)O)C(=O)O)ccc21 (some centres unmarked) [Compound 27, 4-(6,7-Dihydro-5,5,8,8-tetramethyl-2-naphthyloxy)glutamic Acid] | 66.5
15 | N[C@@H](CC(Oc1ccc2c(c1)CCC2)C(=O)O)C(=O)O (some centres unmarked) [Compound 28, 4-(5-Indanyloxy)glutamic Acid] | 97.8
16 | N[C@@H](CC(Oc1ccc2c(c1)OCO2)C(=O)O)C(=O)O (some centres unmarked) [Compound 29, 4-(3,4-Methylenedioxyphenoxy)glutamic Acid] | 89.0
17 | NC(CC(Oc1ccc2oc3c(c2c1)CCCC3)C(=O)O)C(=O)O (centres unmarked) [Compound 32, 4-(5,6,7,8-Tetrahydro-2-dibenzofuranoxy)glutamic Acid] | 92.6
18 | Cc1cc2cc(OC(C[C@H](N)C(=O)O)C(=O)O)ccc2o1 (some centres unmarked) [Compound 33, 4-(2-Methyl-5-benzofuranyloxy)glutamic Acid] | 90.1
19 | N[C@@H](CC(Oc1ccc2sccc2c1)C(=O)O)C(=O)O (some centres unmarked) [Compound 34, 4-(5-Benzothiophenyloxy)glutamic Acid] | 95.3
20 | NC(CC(Oc1ccc(C(c2ccc(Cl)cc2)c2ccccn2)cc1)C(=O)O)C(=O)O (centres unmarked) [Compound 35] | 92.4
21 | NC(CC(Sc1nncn1Cc1ccccc1)C(=O)O)C(=O)O (centres unmarked) [Compound 36, 4-(4-Benzyl-1,2,4-triazole-3-thio)glutamic Acid] | 81.3
22 | N[C@@H](CC(Sc1n[nH]c(C=Cc2ccccc2Cl)n1)C(=O)O)C(=O)O (some centres unmarked) [Compound 38, 4-(5-((2-Chlorophenyl)ethenyl)-1,2,4-triazole-3-thio)glutamic Acid] | 89.9

Further lines, results first:

Row | Percent displacement of L-[3H]Glu [%] | SMILES
23 | 88.0 | N[C@@H](CC(Oc1ccccc1)C(=O)O)C(=O)O (some centres unmarked) [Compound 1, 4-Phenoxyglutamic Acid]
24 | 82.4 | Cc1ccc(OC(C[C@H](N)C(=O)O)C(=O)O)cc1 (some centres unmarked) [Compound 3, 4-(4-Methylphenoxy)glutamic Acid]
25 | 86.7 | N[C@@H](CC(Oc1ccc(-c2ccccc2)cc1)C(=O)O)C(=O)O (some centres unmarked) [Compound 12, 4-(4-Phenylphenoxy)glutamic Acid]
26 | 81.6 | N[C@@H](CC(Oc1cccc(-c2ccccc2)c1)C(=O)O)C(=O)O (some centres unmarked) [Compound 13, 4-(3-Phenylphenoxy)glutamic Acid]
27 | 93.8 | N[C@@H](CC(Oc1ccc(Cc2ccccc2)cc1)C(=O)O)C(=O)O (some centres unmarked) [Compound 14, 4-(4-Benzylphenoxy)glutamic Acid]
28 | 85.9 | N[C@@H](CC(Oc1ccccc1Cc1ccccc1)C(=O)O)C(=O)O (some centres unmarked) [Compound 15, 4-(2-Benzylphenoxy)glutamic Acid]
29 | 76.9 | N[C@@H](CC(Oc1ccc(CCCCCCc2ccccc2)cc1)C(=O)O)C(=O)O (some centres unmarked) [Compound 16, 4-(4-(6-Phenylhexyl)phenoxy)glutamic Acid]
30 | 75.9 | N[C@@H](CC(Oc1ccc(CC=Cc2ccccc2)cc1)C(=O)O)C(=O)O (some centres unmarked) [Compound 17, 4-(4-(3-Phenylprop-2-enyl)phenoxy)glutamic Acid]
31 | 84.6 | N[C@@H](CC(Oc1ccc(Oc2ccccc2)cc1)C(=O)O)C(=O)O (some centres unmarked) [Compound 19, 4-(4-Phenoxyphenoxy)glutamic Acid]
32 | 67.8 | N[C@@H](CC(Oc1ccc(OCc2ccccc2)cc1)C(=O)O)C(=O)O (some centres unmarked) [Compound 20, 4-(4-Benzyloxyphenoxy)glutamic Acid]
33 | 95.9 | N[C@@H](CC(Oc1ccc2ccccc2c1)C(=O)O)C(=O)O (some centres unmarked) [Compound 21, 4-(2-Naphthyloxy)glutamic Acid]
34 | 98.5 | N[C@@H](CC(Oc1cccc2ccccc12)C(=O)O)C(=O)O (some centres unmarked) [Compound 25, 4-(1-Naphthyloxy)glutamic Acid]
35 | 93.7 | N[C@@H](CC(Oc1ccc2c(c1)Cc1ccccc1-2)C(=O)O)C(=O)O (some centres unmarked) [Compound 30, 4-(2-Fluorenoxy)glutamic Acid]
36 | 99.4 | N[C@@H](CC(Oc1ccc2oc3ccccc3c2c1)C(=O)O)C(=O)O (some centres unmarked) [Compound 31, 4-(2-Dibenzofuranoxy)glutamic Acid]
37 | 103.2 | Cc1ccc(O[C@@H](C[C@H](N)C(=O)O)C(=O)O)cc1 [Compound 44, (2S,4S)-4-(4-Methylphenoxy)glutamic Acid]
38 | 101.5 | N[C@@H](C[C@H](Oc1ccc2ccccc2c1)C(=O)O)C(=O)O [Compound 45, (2S,4S)-4-(2-Naphthyloxy)glutamic Acid]
39 | 85.5 | N[C@@H](C[C@H](Oc1ccc(-c2ccccc2)cc1)C(=O)O)C(=O)O [Compound 46, (2S,4S)-4-(4-Phenylphenoxy)glutamic Acid]
40 | 107.1 | N[C@@H](C[C@H](Oc1ccc2oc3ccccc3c2c1)C(=O)O)C(=O)O [Compound 47, (2S,4S)-4-(2-Dibenzofuranoxy)glutamic Acid]
41 | 91.9 | NC(CC(Oc1ccc(/C=C/c2ccccc2)cc1)C(=O)O)C(=O)O (centres unmarked) [Compound 48, 4-(4-(4-phenylethenyl)phenoxy)glutamic acid]
42 | 81.5 | N[C@@H](CC(Oc1ccc(CCc2ccccc2)cc1)C(=O)O)C(=O)O (some centres unmarked) [Compound 49, 4-(4-(2-phenylethyl)phenoxy)glutamic acid]
43 | 75.9 | NC(CC(Oc1ccc(CCCc2ccccc2)cc1)C(=O)O)C(=O)O (centres unmarked) [Compound 50]
44 | 81.0 | N[C@@H](CC(Oc1ccc(CCCCc2ccccc2)cc1)C(=O)O)C(=O)O (some centres unmarked) [Compound 51, 4-(4-(4-phenylbutyl)phenoxy)glutamic acid]
